The term IC50 denotes the concentration at which inhibition is half-maximal. Read a low IC50 as greater potency. Broadly, the EC50 is the midpoint of the concentration-response curve.

IC50 and EC50 data for 24 compounds are collected here from patent publication US12410160B2 (Gilead Sciences, Inc., priority 2021, dated 2025).

In assay [1] the target is human KHK-A (Homo sapiens (Human), UniProt P50053). In words: KHK Biochemical Assay (IC50), ADP-Glo, KHK-A. The conditions noted are these: average of at least two separate assays. In outline: (§1)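 ADP-Glo luminescence measured ADP made over a 4 h room-temperature reaction of ATP plus fructose, started after 30 min compound–enzyme pre-incubation. Buffer: 50 mM Hepes pH 7.4, 140 mM KCl, 5 mM MgCl2, 0.01% Triton-X. Enzyme was His-tagged, BL21 (DE3)-expressed, Ni-NTA-purified; compounds in 1:3 DMSO dilution series.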
Chain of human KHK-A (P50053 other isoform, or with tags, fused parts or gaps): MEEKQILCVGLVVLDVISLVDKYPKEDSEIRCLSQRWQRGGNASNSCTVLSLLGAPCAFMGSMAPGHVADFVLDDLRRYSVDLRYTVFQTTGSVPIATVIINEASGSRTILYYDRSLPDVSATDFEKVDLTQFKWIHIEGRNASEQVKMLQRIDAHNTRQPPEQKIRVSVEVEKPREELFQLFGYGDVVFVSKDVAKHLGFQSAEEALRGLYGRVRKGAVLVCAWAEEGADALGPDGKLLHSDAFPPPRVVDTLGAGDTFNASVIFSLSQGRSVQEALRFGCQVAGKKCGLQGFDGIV

The test system of assay [2] is HepG2 cells. In words: F1P Cell-Based Assay (EC50), 13C6-fructose-1-phosphate in HepG2 cells (cell culture medium or 50% human plasma).
Assay [3] concerns the target human KHK-C (Homo sapiens (Human), UniProt P50053). In words: KHK Biochemical Assay (IC50), ADP-Glo, KHK-C. The following applies: average of at least two separate assays. An outline of the steps: as §1
[4] abbreviates: Homo sapiens, HepG2, HepG2 cells, 50% human plasma, read-out: F1P 50% HP EC50.
Setting [5] is: Homo sapiens, HepG2, read-out: F1P 10% FBS EC50, HepG2 cells, cell culture medium (10% FBS).
Where [6] appears, read: HepG2 cells, 50% human plasma, read-out: F1P 50% HP EC50.
The mark [7] stands for this setting: read-out: F1P 10% FBS EC50, HepG2 cells, cell culture medium (10% FBS).

Read-outs that look alike come from different tables or passages of the source. Bounds are passed on as bounds.

Chain of human KHK-C (P50053 whole entry): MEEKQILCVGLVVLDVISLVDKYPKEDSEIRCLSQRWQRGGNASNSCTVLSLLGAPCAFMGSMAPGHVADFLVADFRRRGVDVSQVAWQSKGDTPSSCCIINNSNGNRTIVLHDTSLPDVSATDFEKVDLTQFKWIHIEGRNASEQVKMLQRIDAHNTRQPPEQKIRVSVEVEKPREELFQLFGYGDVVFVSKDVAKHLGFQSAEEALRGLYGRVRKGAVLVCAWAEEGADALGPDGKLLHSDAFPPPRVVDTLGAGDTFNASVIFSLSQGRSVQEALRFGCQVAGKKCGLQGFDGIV

As to `C[C@H]1[C@@H](F)CN1c1nc(-c2ccc(C3(N)COC3)cc2)c2c(n1)C(F)(F)CC2` (stereo in doubt) [Example 469, 3-(4-(7,7-difluoro-2-((28,38)-3-fluoro-2-methylazetidin-1-yl)-6,7-dihydro-5H-cyclopenta[d]pyrimidin-4-yl)phenyl)oxetan-3-amine], the results for the IC50 in assay [1] and in assay [3] were 0.0067 µM and 0.0025 µM, respectively. The EC50 was 0.0225 µM in assay [2] (setting [4]) and 0.0107 µM in assay [2] (setting [5]).

With `C[C@H]1[C@H](O)CN1c1nc(-c2cc(F)c3c(c2)OC[C@@H]3NS(C)(=O)=O)c2c(n1)C(F)(F)CC2` (single isomer, unassigned) [Example 813], the figures for the 50% inhibitory concentration (IC50) in assay [1] (ADP-Glo) and in assay [3] (ADP-Glo) were 0.0347 µM and 0.0025 µM, respectively. In addition, the concentration giving a half-maximal response (EC50) turned out to be 0.0784 µM in assay [2] (setting [4]) and 0.0252 µM in assay [2] (setting [5]).

Turning to `C[C@H]1[C@H](F)CN1c1nc(-c2ccc([C@H](N)CS(C)(=O)=O)cc2)c2c(n1)C(F)(F)CC2` (single isomer, unassigned) [Example 788], the figures for the IC50 in assay [1] and in assay [3] were 0.006 µM and 0.0025 µM, respectively. Also, the concentration giving a half-maximal response (EC50) turned out to be 0.0765 µM in assay [2] (setting [6]) and 0.0186 µM in assay [2] (setting [7]).

Regarding `COc1ccc(-c2nc(N3C[C@@H](O)[C@@H]3C)nc3c2CCC3(F)F)cc1[S@@](=N)(=O)C1CC1` (single isomer, unassigned) [Example 539], the IC50 in assay [1] stood at 0.0004 µM; in assay [3] it was 0.001 µM. The EC50 in assay [2] (setting [6]) was determined as 0.0089 µM; in assay [2] (setting [7]), 0.002 µM.

For `C[C@H]1[C@H](O)CN1c1nc(-c2ccc3c(c2)OCC[C@@H]3NS(C)(=O)=O)c2c(n1)C(F)(F)CC2` (single isomer, unassigned) [Example 787], the results for the concentration for half-maximal inhibition (IC50) in assay [1] and in assay [3] were 0.007 µM and 0.0011 µM, respectively. Also, the 50% effective concentration (EC50) in assay [2] (setting [4]) is 0.0275 µM; in assay [2] (setting [5]) it was 0.0149 µM.

As to `COc1cc(-c2nc(N3C[C@@H](O)[C@@H]3C)nc3c2CCC3(F)F)cc2c1[C@H](NS(C)(=O)=O)CO2` (single isomer, unassigned) [Example 478], the concentration giving a half-maximal response (EC50) in assay [2] (setting [6]) worked out at 0.0555 µM; in assay [2] (setting [5]), 0.0285 µM. Also, half-maximal inhibition in assay [3] (IC50) was put at 0.0029 µM.

`CS(=O)(=O)CC(N)c1ccc(-c2nc(N3CC[C@@H]3CF)nc3c2CCC3(F)F)cc1` (stereo partly drawn) [Example 780, 1-(4-(7,7-difluoro-2-((R)-2-(fluoromethyl)azetidin-1-yl)-6,7-dihydro-5H-cyclopenta[d]pyrimidin-4-yl)phenyl)-2-(methylsulfonyl)ethan-1-amine]: the figures for the EC50 in assay [2] (setting [4]) and in assay [2] (setting [5]) were 0.035 µM and 0.0228 µM, respectively. The compound further had an IC50 in assay [3] of 0.0048 µM.

`C[C@H]1[C@H](O)CN1c1nc(-c2ccc([C@@H](N)C(F)F)cc2)c2c(n1)C(F)(F)CC2` [Example 659, (2S,3R)-1-[4-[4-[(1R)-1-amino-2,2-difluoro-ethyl]phenyl]-7,7-difluoro-5,6-dihydrocyclopenta[d]pyrimidin-2-yl]-2-methyl-azetidin-3-ol]: the EC50 was determined as 0.054 µM in assay [2] (setting [4]) and 0.0425 µM in assay [2] (setting [5]). This compound also gave a 50% inhibitory concentration (IC50) in assay [3] of 0.008 µM.

As for `NC1(c2ccc(-c3nc(N4CC(F)(F)C4CO)nc4c3CCC4(F)F)cc2)CS(=O)(=O)C1` (stereo not shown) [Example 782, 3-amino-3-(4-(2-(3,3-difluoro-2-(hydroxymethyl)azetidin-1-yl)-7,7-difluoro-6,7-dihydro-5H-cyclopenta[d]pyrimidin-4-yl)phenyl)thietane 1,1-dioxide], the EC50 was determined as 0.13 µM in assay [2] (setting [4]) and 0.135 µM in assay [2] (setting [5]). In addition, the IC50 in assay [3] was found to be 0.0063 µM.

For `COc1cc(-c2nc(N3C[C@@H](O)[C@@H]3C)nc3c2CCC3(F)F)cc2c1[C@H](NS(C)(=O)=O)CO2` (single isomer, unassigned) [Example 531], the half-maximal effective concentration (EC50) in assay [2] (setting [6]) amounted to 0.439 µM; in assay [2] (setting [7]), 0.0551 µM. Besides, 0.009 µM corresponded to half-maximal inhibition in assay [3] (IC50).

Regarding `C[C@H]1[C@H](O)CN1c1nc(-c2ccc3c(c2)S(=O)(=O)C[C@@H]3N)c2c(n1)C(F)(F)CC2` (single isomer, unassigned) [Example 662], the EC50 came out at 0.0172 µM in assay [2] (setting [4]) and 0.0226 µM in assay [2] (setting [5]). The same compound displayed a half-inhibitory concentration (IC50) in assay [3] of 0.0031 µM.

In the case of `C[C@H]1[C@H](O)CN1c1nc(-c2ccc3c(c2)OC[C@@H]3NS(=O)(=O)C2CC2)c2c(n1)C(F)(F)CC2` [Example 625], the half-maximal effective concentration (EC50) amounted to 0.0722 µM in assay [2] (setting [4]) and 0.0176 µM in assay [2] (setting [5]). The compound further displayed a half-maximal inhibitory concentration (IC50) in assay [3] of 0.0015 µM.

Consider `COc1cc(-c2nc(N3C[C@@H](O)[C@@H]3C)nc3c2CCC3(F)F)cc2c1[C@@H](NS(C)(=O)=O)CO2` [Example 529, N-(6-(7,7-difluoro-2-((2S,3R)-3-hydroxy-2-methylazetidin-1-yl)-6,7-dihydro-5H-cyclopenta[d]pyrimidin-4-yl)-4-methoxy-2,3-dihydrobenzofuran-3-yl)methanesulfonamide], for which the EC50 came out at 0.0653 µM in assay [2] (setting [6]) and 0.0262 µM in assay [2] (setting [7]). The IC50 in assay [3] is 0.0027 µM.

On to `C[C@H]1[C@H](O)CN1c1nc(-c2ccc3c(c2)OCC32COC(=O)N2)c2c(n1)C(F)(F)CC2` (stereo partly drawn) [Example 481, 6-(7,7-difluoro-2-((2S,3R)-3-hydroxy-2-methylazetidin-1-yl)-6,7-dihydro-5H-cyclopenta[d]pyrimidin-4-yl)-2H-spiro[benzofuran-3,4′-oxazolidin]-2′-one], for which the EC50 amounted to 0.043 µM in assay [2] (setting [4]) and 0.0066 µM in assay [2] (setting [5]). Besides, the IC50 in assay [3] was determined as 0.0003 µM.

Regarding `C[C@H]1CCN1c1nc(-c2cccc(C3(N)CS(=O)(=O)C3)c2)c2c(n1)C(F)(F)CC2` [Example 790, (S)-3-amino-3-(3-(7,7-difluoro-2-(2-methylazetidin-1-yl)-6,7-dihydro-5H-cyclopenta[d]pyrimidin-4-yl)phenyl)thietane 1,1-dioxide], the EC50 turned out to be 0.104 µM in assay [2] (setting [4]) and 0.029 µM in assay [2] (setting [5]). This compound gave a half-maximal inhibitory concentration (IC50) in assay [3] of 0.0142 µM.

Take `C[C@H]1[C@H](F)CN1c1nc(-c2ccc3c(c2)O[C@H](CO)CNC3=O)c2c(n1)C(F)(F)CC2` [Example 590, (S)-8-(7,7-difluoro-2-((2S,3R)-3-fluoro-2-methylazetidin-1-yl)-6,7-dihydro-5H-cyclopenta[d]pyrimidin-4-yl)-2-(hydroxymethyl)-3,4-dihydrobenzo[f][1,4]oxazepin-5(2H)-one]: the EC50 in assay [2] (setting [4]) turned out to be 0.0232 µM; in assay [2] (setting [5]) it was 0.0091 µM. In addition, half-maximal inhibition in assay [3] (IC50) required 0.0018 µM.

Consider `C[C@H]1[C@H](O)CN1c1nc(-c2cccc(S(C)(=O)=O)c2)c2c(n1)C(F)(F)CC2` [Example 509, (2S,3R)-1-(7,7-difluoro-4-(3-(methylsulfonyl)phenyl)-6,7-dihydro-5H-cyclopenta[d]pyrimidin-2-yl)-2-methylazetidin-3-ol], for which the EC50 amounted to 0.0581 µM in assay [2] (setting [4]) and 0.0251 µM in assay [2] (setting [5]). The same compound registered an IC50 in assay [3] of 0.0199 µM.

Consider `C[C@H]1[C@H](O)CN1c1nc(-c2cccc(CN3CCCS3(=O)=O)c2)c2c(n1)C(F)(F)CC2` [Example 620], for which the concentration for a half-maximal effect (EC50) was determined as 0.113 µM in assay [2] (setting [4]) and 0.0191 µM in assay [2] (setting [5]). Besides, the IC50 in assay [3] came to 0.0097 µM.

Take `C[C@H]1[C@H](O)CN1c1nc(-c2ccc3c(c2)C(C)(C)CC3NS(C)(=O)=O)c2c(n1)C(F)(F)CC2` (stereo partly drawn) [Example 630, N-(5-(7,7-difluoro-2-((2S,3R)-3-hydroxy-2-methylazetidin-1-yl)-6,7-dihydro-5H-cyclopenta[d]pyrimidin-4-yl)-3,3-dimethyl-2,3-dihydro-1H-inden-1-yl)methanesulfonamide]: the EC50 was more than 0.5 µM in assay [2] (setting [4]) and 0.0688 µM in assay [2] (setting [5]). Moreover, the half-inhibitory concentration (IC50) in assay [3] was 0.0024 µM.

`C[C@H]1[C@H](O)CN1c1nc(-c2ccc(C(F)(F)CN)cc2)c2c(n1)C(F)(F)CC2` [Example 515, (2S,3R)-1-(4-(4-(2-amino-1,1-difluoroethyl)phenyl)-7,7-difluoro-6,7-dihydro-5H-cyclopenta[d]pyrimidin-2-yl)-2-methylazetidin-3-ol]: the EC50 in assay [2] (setting [4]) is 0.126 µM; in assay [2] (setting [5]) it was 0.0591 µM. This compound had a half-inhibitory concentration (IC50) in assay [3] of 0.0297 µM.

As for `C[C@H]1[C@H](O)CN1c1nc(-c2cc(F)c3c(c2)CC[C@H]3NS(C)(=O)=O)c2c(n1)C(F)(F)CC2` (single isomer, unassigned) [Example 527], the values for the EC50 in assay [2] (setting [4]) and in assay [2] (setting [5]) were 0.123 µM and 0.0812 µM, respectively. This compound also registered an IC50 in assay [3] of 0.008 µM.

For the compound `C[C@H]1[C@H](O)CN1c1nc(-c2ccc3c(c2)CC[C@H]3NS(C)(=O)=O)c2c(n1)C(F)(F)CC2` [Example 473, N—((R)-5-(7,7-difluoro-2-((2S,3R)-3-hydroxy-2-methylazetidin-1-yl)-6,7-dihydro-5H-cyclopenta[d]pyrimidin-4-yl)-2,3-dihydro-1H-inden-1-yl)methanesulfonamide], the concentration giving a half-maximal response (EC50) in assay [2] (setting [4]) was determined as 0.111 µM; in assay [2] (setting [5]), 0.0635 µM. Besides, 0.0075 µM corresponded to half-maximal inhibition in assay [3] (IC50).

For `C[C@H]1CCN1c1nc(-c2ccc3c(c2)[C@@H](NS(C)(=O)=O)CC3)c2c(n1)C(F)(F)CC2` (single isomer, unassigned) [Example 609], the concentration giving a half-maximal response (EC50) turned out to be 0.0547 µM in assay [2] (setting [4]) and 0.0107 µM in assay [2] (setting [5]). Moreover, the half-inhibitory concentration (IC50) in assay [3] stood at 0.001 µM.

Turning to `C[C@H]1CCN1c1nc(-c2ccc(C(N)CS(C)(=O)=O)cc2)c2c(n1)C(F)(F)CC2` (stereo partly drawn) [Example 774, 1-(4-(7,7-difluoro-2-((S)-2-methylazetidin-1-yl)-6,7-dihydro-5H-cyclopenta[d]pyrimidin-4-yl)phenyl)-2-(methylsulfonyl)ethan-1-amine], the concentration giving a half-maximal response (EC50) in assay [2] (setting [5]) came out at 0.0118 µM. This compound had an IC50 in assay [3] of 0.0021 µM.
